Results as given in US9115092B2, “Substituted quinazoline and pyrido-pyrimidine derivatives” (Asana Biosciences, LLC, priority 2010, dated 2015).

How the values were obtained:
PC3 cells = test: XTT assay for cell viability, PC3 cells; type: cell-based, human; conditions: Homo sapiens, PC-3, cell viability
Description: Using a commercial kit from Sigma Aldrich (Catalog #X34251) and following its protocol, PC3 cells in the log phase of growth were employed and seeded at an optimal density of 1000 cell/well on to 96 well plates and incubated for 24 h followed by the addition of compounds of formula (I) in serial dilutions. Compound dilutions were made in DMSO. The cells were incubated with the compounds of formula (I) for 96 h and XTT tetrazolium dye (Sigma, USA) was subsequently added and incubated at 37° C. After the color formation, absorbance was measured at 465 nm in a Spectramax® Gemini spectrophotometer. EC50 values were calculated using a sigmoidal dose response curve fit in GraphPad Prism® v5 software. The tested compounds of formula (I) which caused inhibition of PC3 cell proliferation as determined by this assay protocol are shown in Table 2.

mTOR kinase = target: T1, mTOR kinase (Homo sapiens, UniProt P42345); test: mTOR kinase TR-FRET assay; type: biochemical; conditions: read-out: mTO R
T1 construct: purchased Millipore, USA
How it was run: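 Compounds preincubated 60 min with mTOR (5 ng) in HEPES pH 7.5, EGTA, MnCl2; ULight-p70 S6K Thr389 peptide (50 nM) and ATP (20 μM) then added, 60 min at room temperature. EDTA-stopped, Eu-anti-phospho antibody detection by TR-FRET (665/615 nm); IC50 from variable-slope sigmoidal fit.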

[1] = target: T2, PI3Kα (wild-type), P110/P85α (Homo sapiens, UniProt P42336); test: PI3 Kinase TR-FRET assay, PI3Kα (wild-type); type: biochemical
T2 construct: made in house; host or cells: SF9 insect cells
How it was run: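 Sf9-expressed His-purified P110/P85α (5 ng) preincubated 60 min RT with compound and PIP2 in buffer with 40 mM MgCl2, 5 mM DTT; reaction started with ATP (PIP2 and ATP both 10 μM), 30 min RT. PIP3 detected by TR-FRET displacement, 665/615 nm ratio; IC50 from dose-response curves.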

T2 sequence (P42336 whole entry): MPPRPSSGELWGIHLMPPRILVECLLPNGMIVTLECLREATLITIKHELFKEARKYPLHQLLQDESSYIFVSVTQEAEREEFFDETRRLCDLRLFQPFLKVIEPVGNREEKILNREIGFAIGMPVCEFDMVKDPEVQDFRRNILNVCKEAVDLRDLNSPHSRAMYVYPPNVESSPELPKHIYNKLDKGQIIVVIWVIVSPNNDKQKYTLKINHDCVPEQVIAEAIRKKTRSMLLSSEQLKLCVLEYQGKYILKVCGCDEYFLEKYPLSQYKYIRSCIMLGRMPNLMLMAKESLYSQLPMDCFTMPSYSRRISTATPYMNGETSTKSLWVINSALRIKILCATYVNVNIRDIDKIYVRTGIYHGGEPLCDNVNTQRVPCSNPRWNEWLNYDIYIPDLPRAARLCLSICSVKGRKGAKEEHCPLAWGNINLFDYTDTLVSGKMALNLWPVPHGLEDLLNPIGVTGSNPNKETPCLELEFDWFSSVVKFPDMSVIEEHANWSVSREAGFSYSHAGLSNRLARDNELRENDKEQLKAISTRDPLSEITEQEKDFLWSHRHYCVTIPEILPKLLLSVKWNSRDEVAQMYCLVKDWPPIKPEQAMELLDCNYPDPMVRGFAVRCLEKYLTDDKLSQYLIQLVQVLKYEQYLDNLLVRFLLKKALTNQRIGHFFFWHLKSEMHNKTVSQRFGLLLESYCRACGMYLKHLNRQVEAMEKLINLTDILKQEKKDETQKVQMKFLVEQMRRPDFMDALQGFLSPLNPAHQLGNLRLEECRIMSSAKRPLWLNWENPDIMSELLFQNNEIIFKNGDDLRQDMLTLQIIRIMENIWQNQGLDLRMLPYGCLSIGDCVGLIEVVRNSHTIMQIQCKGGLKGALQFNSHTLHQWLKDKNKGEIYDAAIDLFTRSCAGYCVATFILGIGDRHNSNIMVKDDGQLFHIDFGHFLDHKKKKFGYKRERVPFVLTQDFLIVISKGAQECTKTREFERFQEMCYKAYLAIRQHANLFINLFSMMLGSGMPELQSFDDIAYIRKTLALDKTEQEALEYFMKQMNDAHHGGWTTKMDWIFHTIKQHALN
T2 sequence (P27986 whole entry partner): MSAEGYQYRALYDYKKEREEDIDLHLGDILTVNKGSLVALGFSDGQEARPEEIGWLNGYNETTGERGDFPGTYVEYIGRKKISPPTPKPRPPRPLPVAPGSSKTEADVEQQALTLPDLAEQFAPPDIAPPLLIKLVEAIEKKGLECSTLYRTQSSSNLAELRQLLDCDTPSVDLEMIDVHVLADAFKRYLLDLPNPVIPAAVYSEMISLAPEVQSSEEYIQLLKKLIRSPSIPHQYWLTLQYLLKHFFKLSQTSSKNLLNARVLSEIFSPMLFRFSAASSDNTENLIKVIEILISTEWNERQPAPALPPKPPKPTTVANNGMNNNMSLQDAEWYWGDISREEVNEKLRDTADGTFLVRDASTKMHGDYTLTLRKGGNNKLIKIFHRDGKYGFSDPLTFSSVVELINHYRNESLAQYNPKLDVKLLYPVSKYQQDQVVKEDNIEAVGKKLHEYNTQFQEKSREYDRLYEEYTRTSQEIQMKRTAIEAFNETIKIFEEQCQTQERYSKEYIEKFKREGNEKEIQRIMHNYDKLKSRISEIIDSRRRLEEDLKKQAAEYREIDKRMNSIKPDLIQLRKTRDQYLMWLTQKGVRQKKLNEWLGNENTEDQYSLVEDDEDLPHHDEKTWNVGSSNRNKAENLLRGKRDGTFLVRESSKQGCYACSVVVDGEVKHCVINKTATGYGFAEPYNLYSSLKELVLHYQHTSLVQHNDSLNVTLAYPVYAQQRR

Structure (SMILES) | IC50 (PC3 cells) | IC50 (mTOR kinase) | IC50 [1]
CN(C)C(=O)c1ccc(NC(=O)Nc2ccc(-c3nc(N4CCOCC4)c4ccc(-c5cccc(CO)c5)cc4n3)cc2)cc1 [Example 45, 4-(3-{4-[7-(3-hydroxymethyl-phenyl)-4-morpholin-4-yl-quinazolin-2-yl]-phenyl}-ureido)-N,N-dimethyl-benzamide] | < 100 nM | < 50 nM | < 50 nM
CN(C)C(=O)c1ccc(NC(=O)Nc2ccc(-c3nc(N4CCOCC4)c4ccc(-c5ccsc5)cc4n3)cc2)cc1 [Example 52, N,N-dimethyl-4-{3-[4-(4-morpholin-4-yl-7-thiophen-3-yl-quinazolin-2-yl)-phenyl]-ureido}-benzamide] | 100 to 500 nM | 50 to 200 nM | < 50 nM
CN(C)C(=O)c1ccc(NC(=O)Nc2ccc(-c3nc(N4CCOCC4)c4ccc(-c5ccoc5)cc4n3)cc2)cc1 [Example 53, 4-{3-[4-(7-furan-3-yl-4-morpholin-4-yl-quinazolin-2-yl)-phenyl]-ureido}-N,N-dimethyl-benzamide] | 100 to 500 nM | 50 to 200 nM | 50 to 200 nM
CN(C)C(=O)c1ccc(NC(=O)Nc2ccc(-c3nc(N4CCOCC4)c4ccc(-c5ccncc5)cc4n3)cc2)cc1 [Example 58, N,N-dimethyl-4-{3-[4-(4-morpholin-4-yl-7-pyridin-4-yl-quinazolin-2-yl)-phenyl]-ureido}-benzamide] | 501 to 5000 nM | < 50 nM | < 50 nM
CN(C)C(=O)c1ccc(NC(=O)Nc2ccc(-c3nc(N4CCOCC4)c4ccc(-c5cnc6ccccc6c5)cc4n3)cc2)cc1 [Example 59, N,N-dimethyl-4-{3-[4-(4-morpholin-4-yl-7-quinolin-3-yl-quinazolin-2-yl)-phenyl]-ureido}-benzamide] | < 100 nM | < 50 nM | < 50 nM
COc1ccc(-c2ccc3c(N4CCOCC4)nc(-c4ccc(NC(=O)Nc5ccc(C(=O)N(C)C)cc5)cc4)nc3c2)cn1 [Example 60, 4-(3-{4-[7-(6-methoxy-pyridin-3-yl)-4-morpholin-4-yl-quinazolin-2-yl]-phenyl}-ureido)-N,N-dimethyl-benzamide] | 100 to 500 nM | < 50 nM | < 50 nM
CN1CCN(C(=O)c2ccc(NC(=O)Nc3ccc(-c4nc(N5CCOCC5)c5ncc(-c6cncnc6)cc5n4)cc3)cc2)CC1 [Example 67, 1-[4-(4-methyl-piperazine-1-carbonyl)-phenyl]-3-[4-(4-morpholin-4-yl-7-pyrimidin-5-yl-pyrido[3,2-d]pyrimidin-2-yl)-phenyl]-urea] | 100 to 500 nM | < 50 nM | < 50 nM
CN(C)C(=O)c1ccc(NC(=O)Nc2ccc(-c3nc(N4CCOCC4)c4ccc(-c5ccnc(F)c5)cc4n3)cc2)cc1 [Example 68, 4-(3-{4-[7-(2-fluoro-pyridin-4-yl)-4-morpholin-4-yl-quinazolin-2-yl]-phenyl}-ureido)-N,N-dimethyl-benzamide] | 501 to 5000 nM | < 50 nM | < 50 nM
Cc1ccc(-c2ccc3c(N4CCOCC4)nc(-c4ccc(NC(=O)Nc5ccc(C(=O)N6CCN(C)CC6)cc5)cc4)nc3c2)o1 [Example 70, 1-{4-[7-(5-methyl-furan-2-yl)-4-morpholin-4-yl-quinazolin-2-yl]-phenyl}-3-[4-(4-methyl-piperazine-1-carbonyl)-phenyl]-urea] | 501 to 5000 nM | 50 to 200 nM | 50 to 200 nM
CN1CCN(C(=O)c2ccc(NC(=O)Nc3ccc(-c4nc(N5CCOCC5)c5ncc(-c6cnn(C)c6)cc5n4)cc3)cc2)CC1 [Example 73, 1-[4-(4-methyl-piperazine-1-carbonyl)-phenyl]-3-{4-[7-(1-methyl-1H-pyrazol-4-yl)-4-morpholin-4-yl-pyrido[3,2-d]pyrimidin-2-yl]-phenyl}-urea] | 501 to 5000 nM | < 50 nM | < 50 nM
CN(C)C(=O)c1ccc(NC(=O)Nc2ccc(-c3nc(N4CCOCC4)c4ccc(-c5cccs5)cc4n3)cc2)cc1 [Example 74, N,N-dimethyl-4-{3-[4-(4-morpholin-4-yl-7-thiophen-2-yl-quinazolin-2-yl)-phenyl]-ureido}-benzamide] | 501 to 5000 nM | 50 to 200 nM | < 50 nM
COc1ncc(-c2ccc3c(N4CCOCC4)nc(-c4ccc(NC(=O)Nc5ccc(C(=O)N(C)C)cc5)cc4)nc3c2)cn1 [Example 75, 4-(3-{4-[7-(2-methoxy-pyrimidin-5-yl)-4-morpholin-4-yl-quinazolin-2-yl]-phenyl}-ureido)-N,N-dimethyl-benzamide] | < 100 nM | < 50 nM | < 50 nM
CN1CCN(C(=O)c2ccc(NC(=O)Nc3ccc(-c4nc(N5CCOCC5)c5ccc(-c6cncnc6)cc5n4)cc3)cc2)CC1 [Example 79, 1-[4-(4-methyl-piperazine-1-carbonyl)-phenyl]-3-[4-(4-morpholin-4-yl-7-pyrimidin-5-yl-quinazolin-2-yl)-phenyl]-urea] | 501 to 5000 nM | < 50 nM | 201 to 10000 nM
Cc1ccncc1-c1cnc2c(N3CCOCC3)nc(-c3ccc(NC(=O)Nc4ccc(C(=O)N(C)C)cc4)c(F)c3)nc2c1 [Example 116, 4-(3-(2-fluoro-4-(7-(4-methylpyridin-3-yl)-4-morpholino-pyrido[3,2-d]pyrimidin-2-yl)phenyl)ureido)-N,N-dimethyl-benzamide] | 501 to 5000 nM | 50 to 200 nM | 50 to 200 nM
CN(C)C(=O)c1ccc(NC(=O)Nc2ccc(-c3nc(N4CCOCC4)c4ncc(-c5cnn(C)c5)cc4n3)cc2F)cn1 [Example 124, 5-(3-(2-fluoro-4-(7-(1-methyl-1H-pyrazol-4-yl)-4-morpholino-pyrido[3,2-d]pyrimidin-2-yl)phenyl)ureido)-N,N-dimethylpicolinamide] | 201 to 10000 nM | < 50 nM | < 50 nM
Cc1noc(C)c1-c1cnc2c(N3CCOCC3)nc(-c3ccc(NC(=O)Nc4ccc(C(=O)N(C)C)cc4)c(F)c3)nc2c1 [Example 135, 4-(3-(4-(7-(3,5-dimethylisoxazol-4-yl)-4-morpholino-pyrido[3,2-d]pyrimidin-2-yl)-2-fluorophenyl)ureido)-N,N-dimethyl-benzamide] | 201 to 10000 nM | < 50 nM | < 50 nM
CC1CN(c2nc(-c3ccc(NC(=O)Nc4ccc(C(=O)N(C)C)cc4)cc3)nc3cc(-c4cncnc4)ccc23)CCO1 (stereo not drawn) [Example 138, N,N-dimethyl-4-(3-(4-(4-(2-methylmorpholino)-7-(pyrimidin-5-yl)quinazolin-2-yl)phenyl)ureido)-benzamide] | 201 to 10000 nM | < 50 nM | < 50 nM
Cc1noc(C)c1-c1cc2nc(-c3ccc(NC(=O)Nc4ccc(C(=O)N(C)C)cc4)cc3)nc(N3CCOCC3)c2cc1F [Example 143, 4-(3-(4-(7-(3,5-dimethylisoxazol-4-yl)-6-fluoro-4-morpholino-quinazolin-2-yl)phenyl)ureido)-N,N-dimethyl-benzamide] | 201 to 10000 nM | < 50 nM | 50 to 200 nM
CN(C)C(=O)c1ccc(NC(=O)Nc2ccc(-c3nc(N4CCOCC4)c4ccc(-c5cnc(N(C)C)nc5)cc4n3)cc2)cc1 [Example 226, 4-(3-(4-(7-(2-(dimethylamino)pyrimidin-5-yl)-4-morpholino-quinazolin-2-yl)phenyl)ureido)-N,N-dimethyl-benzamide] | 201 to 10000 nM | < 50 nM | < 50 nM
CNC(=O)c1ccc(NC(=O)Nc2ccc(-c3nc(N4CCOCC4)c4ccc(-c5ccco5)cc4n3)cc2)cc1 [Example 233, 4-(3-(4-(7-(furan-2-yl)-4-morpholine-quinazolin-2-yl)phenyl)ureido)-N-methyl-benzamide] | < 100 nM | 50 to 200 nM | < 50 nM
CN(C)C(=O)c1ccc(NC(=O)Nc2ccc(-c3nc(N4CCOCC4)c4ccc(-c5cncnc5)cc4n3)cc2)cc1F [Example 240, 2-fluoro-N,N-dimethyl-4-(3-(4-(4-morpholino-7-(pyrimidin-5-yl)quinazolin-2-yl)phenyl)ureido)-benzamide] | 201 to 10000 nM | < 50 nM | < 50 nM
CN(C)C(=O)c1ccc(NC(=O)Nc2ccc(-c3nc(N4CCOCC4)c4ccc(-c5cccc(S(C)(=O)=O)c5)cc4n3)c(F)c2)cc1 [Example 245, 4-(3-(3-fluoro-4-(7-(3-(methylsulfonyl)phenyl)-4-morpholino-quinazolin-2-yl)phenyl)ureido)-N,N-dimethyl-benzamide] | 201 to 10000 nM | 50 to 200 nM | < 50 nM
CN(C)C(=O)c1ccc(NC(=O)Nc2ccc(-c3nc(N4CCOCC4)c4ncc(-c5cncnc5)cc4n3)c(F)c2)cc1 [Example 250, 4-(3-(3-fluoro-4-(4-morpholino-7-(pyrimidin-5-yl)pyrido[3,2-d]pyrimidin-2-yl)phenyl)ureido)-N,N-dimethyl-benzamide] | 201 to 10000 nM | < 50 nM | < 50 nM
